Tested on: patients with moderately severe Acute Lung Injury (ALI)
Assay: Adult ALI/ARDS study, 5 ppm iNO versus placebo: efficacy and respiratory parameters
Format: in vivo, human
Settings: for mortality, benefit versus control: adults
Description: A large-scale, randomized, blinded, placebo-controlled study was carried out in the Intensive Care Units (ICUs) of 46 US hospitals to evaluate the efficacy of low-dose (5 ppm) iNO in 385 patients with moderately severe Acute Lung Injury (ALI). The primary endpoint of this study was number of days alive and off assisted breathing.
Patients had acute lung injury (ALI), defined by a modification of American-European Consensus Conference criteria (PaO2/inspired oxygen concentration [FiO2] ratio of ≤250 mm Hg), due to causes other than severe sepsis. Patients with evidence of non-pulmonary system failure at the time of randomization and sepsis-induced ARDS were excluded. Patients were also excluded if they had sustained hypotension requiring vasopressor support, hemodynamic profiles supporting severe sepsis, severe head injury, severe burns, or evidence of other significant organ system dysfunction at baseline.
Patients were randomly assigned to receive either inhaled placebo gas (nitrogen) or 5 ppm of iNO (INO Therapeutics Inc., Port Allen, La.). All patients, healthcare professionals, and investigators were blinded to the assigned treatment. Inhaled NO was administered via INOvent® delivery system (Datex-Ohmeda, Madison, Wis.) that blended treatment gas (nitrogen or NO at 100-ppm balance nitrogen) 1:20 with ventilator gases to achieve a target ppm value in the inspiratory limb of the ventilator.
All patients using the iNO delivery system received mechanical ventilatory support. Treatment continued with active or placebo gas until one of the following criteria were met: [1] end of trial (28 days); [2] death; or [3] adequate oxygenation (arterial oxygen saturation by pulse oximetry [SpO2]≥92% or PaO2 of ≥63 mm Hg) without treatment gas at ventilator settings of FiO2≤0.4 and positive end-expiratory pressure (PEEP) of ≤5 cm H2O. Decreases in treatment gas continued in 20% decrements (titrated down by 1 ppm for inhaled NO) every 30 minutes until either the treatment gas concentration reached 0% or oxygenation criteria were not satisfied. If oxygenation criteria were not met, treatment gas concentration was titrated up until they were again achieved. Increments of upward titration were determined by the clinician, based on degree of arterial desaturation.
Baseline oxygenation measures included PaO2, arterial partial pressure of CO2 (PaCO2), SpO2, FiO2, PEEP, PaO2/FiO2 ratio, […], tidal volume, and mean airway pressure. Respiratory parameters (FiO2, PEEP, and PaO2/FiO2 ratio) were recorded on case report forms every 12 hours during mechanical ventilation.
Between-group differences in baseline clinical and demographic characteristics were assessed with the Fisher's exact test and the chi-square test for categorical variables and with the Wilcoxon rank sum test for continuous variables. Baseline oxygenation and respiratory/oxygenation parameters in the two groups were compared using Wilcoxon rank sum tests. The areas under the curve (AUCs) of FiO2, PEEP, and PaO2/FiO2 ratio were calculated using the trapezoidal rule. The null hypothesis that the respective AUCs were normally distributed was rejected employing the Shapiro-Wilk test. A Wilcoxon rank sum test was utilized to assess the differences in each median AUC between treatment groups. A p value <0.05 was considered significant.

[N]=O [Nitric Oxide, nitric oxide]
days alive and meeting oxygenation criteria for extubation, benefit versus control (5 ppm iNO vs nitrogen gas, intent-to-treat): no significant benefit
mortality, benefit versus control (5 ppm iNO vs nitrogen gas, intent-to-treat, listed as Inhaled NO): did not improve
mortality, benefit versus control (5 ppm iNO vs nitrogen gas, intent-to-treat, listed as iNO): no significant benefit
aggregate per-patient changes from baseline in supplemental oxygen, PEEP, or PaO2/FiO2 ratio, between groups (during mechanical ventilation, iNO vs placebo): no significant differences
partial pressure of arterial oxygen (PaO2) (initial 24 hours of treatment, resolved by 48 hours, p<0.05): significant increase
days alive and off assisted breathing, benefit versus control (primary endpoint, 5 ppm iNO vs nitrogen gas, intent-to-treat): no significant benefit
